Measured values: patent US20260083865A1, “PROSTATE SPECIFIC MEMBRANE ANTIGEN (PSMA) LIGANDS AND USE THEREOF” (priority 2022, published 2026)
Numbered stars: 1 amine (or outer) side, 2 acyl side, 3 side chain; on linkers, the order of the positions; unused ones are H or OH. Bridge positions count the residues as written; N and C are the ends. Square brackets hold non-standard residues; d marks the D form. Peptide text beside a SMILES is read from it. * marks the point of attachment. Acetyl(1-DOTA-4-piperidyl) = O=C(O)CN1CCN(CC(=O)O)CCN(CC(=O)N2CCC(CC(=O)*)CC2)CCN(CC(=O)O)CC1; X7 = O=C(O)CN1CCN(CC(=O)O)CCN(CC(=O)NC2CCN(CC(=O)*)CC2)CCN(CC(=O)O)CC1; X3 = O=C(O)CN1CCN(CC(=O)O)CCN(CC(=O)NCCCOCCOCCOCCCN*)CCN(CC(=O)O)CC1; DOTA = O=C(O)CN1CCN(CC(=O)O)CCN(CC(=O)*)CCN(CC(=O)O)CC1; Tyr(3-I) = N[C@@H](Cc1ccc(O)c(I)c1)C(=O)O; Phe(4-Cl) = N[C@@H](Cc1ccc(Cl)cc1)C(=O)O; Propanoyl(3-SO2NH2) = NS(=O)(=O)CCC(=O)*; Arg(Me) = CNC(=N)NCCC[C@H](N)C(=O)O; X4 = O=C(CN1CCC(N[*:1])CC1)[*:2]; Lys(Me) = CNCCCC[C@H](N)C(=O)O; Suc = O=C(CCC(=O)[*:2])[*:1]; Tle = CC(C)(C)[C@H](N)C(=O)O; Aib = CC(C)(N)C(=O)O; Guanidino = N=C(N)N*; X8 = O=C(CC1CCNCC1)*

Assays:
[1] = biological target: T1, PSMA-expressing C4-2 cells (Homo sapiens, UniProt Q04609); assay: FACS binding assay (competition with 50 nM PSM-0183); conditions: FACS binding, C4-2 cells, competition with 50 nM PSM-0183; category; read-out: pIC50 [C4-2] CAT (converted)
T1 construct: PSMA-expressing C4-2 cells (ATCC, Cat. No. CRL-3314) were cultured in RPMI-1640; host or cells: C4-2 cells
T1 sequence (Q04609 whole entry): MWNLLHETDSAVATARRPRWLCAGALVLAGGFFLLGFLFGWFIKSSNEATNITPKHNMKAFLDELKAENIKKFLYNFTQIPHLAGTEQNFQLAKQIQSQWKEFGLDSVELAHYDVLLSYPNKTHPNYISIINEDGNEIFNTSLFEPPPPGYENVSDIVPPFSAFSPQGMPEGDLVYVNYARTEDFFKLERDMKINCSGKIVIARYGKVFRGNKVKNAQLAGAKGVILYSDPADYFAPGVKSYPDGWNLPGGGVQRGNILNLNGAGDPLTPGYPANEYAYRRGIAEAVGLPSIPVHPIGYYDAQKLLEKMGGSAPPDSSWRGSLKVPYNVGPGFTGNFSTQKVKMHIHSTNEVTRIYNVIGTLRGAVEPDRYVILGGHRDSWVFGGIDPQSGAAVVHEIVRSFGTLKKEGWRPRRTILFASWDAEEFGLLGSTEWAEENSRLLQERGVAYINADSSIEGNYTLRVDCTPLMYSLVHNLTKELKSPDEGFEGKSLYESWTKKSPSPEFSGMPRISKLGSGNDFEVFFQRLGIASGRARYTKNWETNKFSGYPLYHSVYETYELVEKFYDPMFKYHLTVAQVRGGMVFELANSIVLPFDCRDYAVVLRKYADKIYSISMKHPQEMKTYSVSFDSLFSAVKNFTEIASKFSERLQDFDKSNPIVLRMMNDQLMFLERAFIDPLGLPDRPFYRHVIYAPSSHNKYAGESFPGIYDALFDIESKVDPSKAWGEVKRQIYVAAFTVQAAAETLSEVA
Protocol: In order to determine binding of compounds according to the present invention to PSMA-expressing cells, a FACS binding assay was established.
PSMA-expressing C4-2 cells (ATCC, Cat. No. CRL-3314) were cultured in RPMI-1640 (Pan Biotech, Cat. No. P04-18050) including 10% fetal calf serum (Biochrom) and 100 U/ml penicillin and 100 μg/mL streptomycin (Sigma, Cat. No. P0781). Cells were detached with Accutase (Biolegend, Cat. No. BLD-423201) and washed in FACS buffer (PBS (Sigma, Cat. No. D8537) including 1% fetal calf serum). Cells were diluted in FACS buffer to a final concentration of 500,000 cells per mL. 200 μL of the cell suspension were transferred to a u-shaped non-binding 96-well plate (Greiner Bio-One, Cat. No. 650901) and cells were washed in ice-cold FACS buffer.
For IC50 determination, C4-2 cells were incubated with 50 nM PSM-0183 (Ac-Thr-Aib-Phe[Cys-Lys-Arg-Aib-Asn-Cys]-Tle-Thr-Asp-Ttds-Ttds-AF488N3K-NH2) in the presence of increasing concentrations of test compounds at 4° C. for 1 hour. After two wash steps with ice-cold FACS buffer, cells were analyzed in an Attune NxT flow cytometer. Median fluorescence intensities (MFI) of the FITC/AF488-channel were calculated by Attune NxT software. MFI values were plotted against peptide concentration and four parameter logistic (4PL) curve fitting and IC50/pIC50 calculations were performed using ActivityBase software (IDBS).

[2] = biological target: T2, Fc-fusion protein of human PSMA (hPSMA-Fc) (Homo sapiens, UniProt Q04609); assay: Surface plasmon resonance assay (Biacore T200, single cycle kinetic); assay type: binding; conditions: SPR, hPSMA-Fc, single cycle kinetic, 25° C.; category; read-out: pKD CAT (converted)
T2 construct: purchased Acro Biosystems PSA-H5264
T2 sequence (Q04609 44-750 limits assumed): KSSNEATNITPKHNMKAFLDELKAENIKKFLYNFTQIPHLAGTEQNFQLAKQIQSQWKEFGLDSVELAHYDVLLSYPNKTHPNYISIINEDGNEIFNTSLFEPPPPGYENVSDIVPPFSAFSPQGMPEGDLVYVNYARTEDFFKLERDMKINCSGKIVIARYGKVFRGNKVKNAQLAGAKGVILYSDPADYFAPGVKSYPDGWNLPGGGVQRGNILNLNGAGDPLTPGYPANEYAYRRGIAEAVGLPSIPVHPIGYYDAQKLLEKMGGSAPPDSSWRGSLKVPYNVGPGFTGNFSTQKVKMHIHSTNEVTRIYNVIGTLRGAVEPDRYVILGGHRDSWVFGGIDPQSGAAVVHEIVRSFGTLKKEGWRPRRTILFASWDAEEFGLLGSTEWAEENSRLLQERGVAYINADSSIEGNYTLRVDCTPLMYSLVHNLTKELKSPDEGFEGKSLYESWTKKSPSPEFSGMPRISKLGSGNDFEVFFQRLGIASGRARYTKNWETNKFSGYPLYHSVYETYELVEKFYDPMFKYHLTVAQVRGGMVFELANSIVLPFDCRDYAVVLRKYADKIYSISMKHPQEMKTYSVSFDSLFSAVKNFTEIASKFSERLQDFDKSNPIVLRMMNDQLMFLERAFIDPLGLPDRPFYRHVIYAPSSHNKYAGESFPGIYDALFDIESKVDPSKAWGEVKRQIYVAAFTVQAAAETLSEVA
Protocol: Surface plasmon resonance (SPR) studies were performed using a Biacore™ T200 SPR system. Briefly, polarized light is directed towards a gold-labeled sensor surface, and minimum intensity reflected light is detected. The angle of reflected light changes as molecules bind and dissociate.
Fc-fusion protein of human PSMA (hPSMA-Fc, Acro Biosystems, Cat #PSA-H5264) was captured on a Fc-capture chip (Biacore™ CM5 sensor chip coated with ˜300 RU of an Fc-binding peptide). hPSMA-Fc was diluted in Running Buffer (HBST, 0.1% DMSO) to a final concentration of 100 nM and then flushed over the Fc-capture chip to immobilized ˜1000 RUs.
Stock solutions of test compounds were prepared by dissolving each compound in DMSO. DMSO stock solution were diluted 1:1000 in Running Buffer without DMSO. Further sequential dilutions were made with Running Buffer containing 0.1% DMSO. SPR binding analyses were performed in Single Cycle Kinetic (SCK) mode at 25° C. Flow cell coated with the Fc-binding peptide only served as reference flowcell. After each SCK run, hPSMA-Fc was removed with 10 mM glycine buffer, pH 1.5.
In between every three SCK measurements, a blank run with Running Buffer instead of test compound was included to correct for baseline drifts (double blanking method).
Table 5 describes the protocol steps for Fc-fusion target capturing and assessment of the binding kinetics.
For each test compound, SPR raw data in the form of resonance units (RU) were plotted as sensorgrams using the Biacore™ T200 control software. The signal from the blank sensorgram was subtracted from that of the test compound sensorgram (blank corrected). The blank corrected sensorgram was corrected for baseline drift by subtracting the sensorgram of a SCK run without the test compound (running buffer only). The dissociation constant (KD) was calculated from Blank-normalized SPR data using the 1:1 Langmuir binding model from the Biacore™ Insight Evaluation software. The pKD value (negative decadic logarithm of dissociation constant) was calculated using Microsoft Excel.

Row | IC50 [1] | Kd [2] | Compound
1 | < 0.2 µM | < 0.0126 µM | C[C@@H](O)[C@H](NC(=O)[C@@H](NC(=O)[C@@H]1CSSC[C@H](NC(=O)[C@H](Cc2ccc(Cl)cc2)NC(=O)C(C)(C)NC(=O)CCS(N)(=O)=O)C(=O)N[C@@H](CCCCN)C(=O)N[C@@H](CCCNC(=N)N)C(=O)N[C@@H](CCCCNC(=O)CN2CCC(NC(=O)CN3CCN(CC(=O)O)CCN(CC(=O)O)CCN(CC(=O)O)CC3)CC2)C(=O)N[C@@H](CC(N)=O)C(=O)N1)C(C)(C)C)C(N)=O [PSM-0188, SaPr-Aib-Pcf-[Cys-Lys-Arg-Lys(DOTA-APAc)-Asn-Cys]-Tle-Thr-NH2] ({Propanoyl(3-SO2NH2)}-[Aib][Phe(4-Cl)]CKRK(X7)NC[Tle]T-NH2; disulfide 3-8)
2 | < 0.2 µM | < 0.0126 µM | CC(=O)N[C@H](C(=O)NC(C)(C)C(=O)N[C@@H](Cc1ccc(Cl)cc1)C(=O)N[C@H]1CSSC[C@@H](C(=O)N[C@H](C(=O)N[C@H](C(N)=O)[C@@H](C)O)C(C)(C)C)NC(=O)[C@H](CC(N)=O)NC(=O)C(C)(C)NC(=O)[C@H](CCC(=O)NC(=N)N)NC(=O)[C@H](CCCCN)NC1=O)[C@@H](C)O [PSM-0189, Ac-Thr-Aib-Pcf-[Cys-Lys-Gln(Gu)-Aib-Asn-Cys]-Tle-Thr-NH2] (Ac-T[Aib][Phe(4-Cl)]CKE(Guanidino)[Aib]NC[Tle]T-NH2; disulfide 4-9)
3 | < 0.2 µM | < 0.0126 µM | CC(=O)N[C@H](C(=O)NC(C)(C)C(=O)N[C@@H](Cc1ccc(Cl)cc1)C(=O)N[C@H]1CSSC[C@@H](C(=O)N[C@H](C(=O)N[C@H](C(=O)N[C@H](CCCCNC(=O)CC2CCN(C(=O)CN3CCN(CC(=O)O)CCN(CC(=O)O)CCN(CC(=O)O)CC3)CC2)C(N)=O)[C@@H](C)O)C(C)(C)C)NC(=O)[C@H](CC(N)=O)NC(=O)C(C)(C)NC(=O)[C@H](CCCNC(=N)N)NC(=O)[C@H](CCCCN)NC1=O)[C@@H](C)O [PSM-0190, Ac-Thr-Aib-Pcf-[Cys-Lys-Arg-Aib-Asn-Cys]-Tle-Thr-lys(DOTA-Cmp)-NH2] (Ac-T[Aib][Phe(4-Cl)]CKR[Aib]NC[Tle]T[dK](Acetyl(1-DOTA-4-piperidyl))-NH2; disulfide 4-9)
4 | < 0.2 µM | < 0.0126 µM | CC(=O)N[C@H](C(=O)NC(C)(C)C(=O)N[C@@H](Cc1ccccc1)C(=O)N[C@H]1CSSC[C@@H](C(=O)N[C@H](C(=O)N[C@H](C(=O)NC2CCN(CC(=O)N[C@H](CCCCNC(=O)CN3CCN(CC(=O)O)CCN(CC(=O)O)CCN(CC(=O)O)CC3)C(N)=O)CC2)[C@@H](C)O)C(C)(C)C)NC(=O)[C@H](CC(N)=O)NC(=O)C(C)(C)NC(=O)[C@H](CCCNC(=N)N)NC(=O)[C@H](CCCCN)NC1=O)[C@@H](C)O [PSM-0191, Ac-Thr-Aib-Phe-[Cys-Lys-Arg-Aib-Asn-Cys]-Tle-Thr-APAc-lys(DOTA)-NH2] (Ac-T[Aib]FCKR[Aib]NC[Tle]T[X4][dK](DOTA)-NH2; disulfide 4-9)
5 | > 3.16 µM | > 0.501 µM | CNCCCC[C@@H]1NC(=O)[C@@H](NC(=O)[C@H](Cc2ccc(O)c(I)c2)NC(=O)C(C)(C)NC(=O)[C@@H](NC(=O)CC2CCNCC2)[C@@H](C)O)CSSC[C@@H](C(=O)N[C@H](C(=O)N[C@H](C(N)=O)[C@@H](C)O)C(C)(C)C)NC(=O)[C@H](CC(N)=O)NC(=O)C(C)(C)NC(=O)[C@H](CCCNC(=N)NC)NC1=O [PSM-0192, H-Cmp-Thr-Aib-Miy-[Cys-Lys(Me)-Arg(Me)-Aib-Asn-Cys]-Tle-Thr-NH2] (X8-T[Aib][Tyr(3-I)]C[Lys(Me)][Arg(Me)][Aib]NC[Tle]T-NH2; disulfide 4-9)
6 | < 0.2 µM | < 0.0126 µM | C[C@@H]1NC(=O)[C@H](CCCNC(=N)N)NC(=O)[C@H](CCCCN)NC(=O)[C@@H](NC(=O)[C@H](Cc2ccccc2)NC(=O)C(C)(C)NC(=O)[C@@H](NC(=O)CCC(=O)NCCCOCCOCCOCCCNC(=O)CN2CCN(CC(=O)O)CCN(CC(=O)O)CCN(CC(=O)O)CC2)[C@@H](C)O)CSSC[C@@H](C(=O)N[C@H](C(=O)N[C@H](C(=O)N[C@@H](CC(=O)O)C(N)=O)[C@@H](C)O)C(C)(C)C)NC(=O)[C@H](CC(N)=O)NC1=O [PSM-0193, DOTA-Ttds-Thr-Aib-Phe-[Cys-Lys-Arg-Ala-Asn-Cys]-Tle-Thr-Asp-NH2] ({X3-Suc}-T[Aib]FCKRANC[Tle]TD-NH2; disulfide 4-9)
